This is an account of results in patent publication EP3974434B1, “MACROLIDE DERIVATIVES, PREPARATION METHOD AND APPLICATION THEREOF” (Zhejiang Hisun Pharmaceutical Co., Ltd., priority 2019, dated 2020).

The structures appear in SMILES notation. Like-named read-outs stand apart in the source and are kept apart here.

In one series the target is T1, TRKA(G595R) (Homo sapiens, UniProt P04629, G595R).
T1 construct: purchased SignalChem N16-12BG-10
Kind of series: HTRF KinEASE-TK kinase activity inhibition assay, TRKA(G595R). The series is classed as biochemical. Conditions: ATP 7 µM. The source says:
(§1) The following method was used to determine the inhibition degrees of the compounds of the present invention on the activity of recombinant human NTRK family kinase in vitro. In this method, HTRF®KinEASE-TK tyrosine kinase kit (article number: 62TK0PEB) of Cisbio company was used, and the principle of the kit was based on time-resolved fluorescence resonance energy transfer (TF-FRET), and the inhibition of the compounds on the activity of the NTRK kinase was reflected by determining a phosphorylation degree of a biotinylated polypeptide substrate mediated by NTRK kinase. For detailed experimental operation, please refer to the kit instruction. Recombinant human wild-type NTRK proteins were purchased from Carna bioscience (the article numbers were TRKA #08-186, TRKB #08-187 and TRKC #08-197 respectively), and recombinant human mutant NTRK proteins were purchased from SignalChem (the article numbers were TRKA G595R #N16-12BG-10, TRKA G667C # N16-12CG-10, and TRKC G623R # N18-12CH-10 respectively).
(§2) The experimental methods were operated according to the steps in the kit instruction, and were briefly described as follows: a test compound was first dissolved in DMSO to prepare a storage solution, and then diluted in gradient with a buffer provided in the kit. A final concentration of the test compound in the reaction system ranged from 1,000 nM to 0.004 nM. An ATP Km value concentration of each NTRK protein was determined by using an ATP solution diluted in gradient (Sangon Biotech (Shanghai) Co., Ltd., A600311). According to the Km value obtained, the ATP concentrations in the reaction system were set as 100 µM for TRKA, 10 µM for TRKB, 50 µM for TRKC, 7 µM for TRKA(G595R), 1 µM for TRKA(G667C) and 100 µM for TRKC(G623R). The reaction was carried out in a 384-well microplate. Firstly, the compound and a certain amount of corresponding NTRK protein were added to the wells and incubated for 5 minutes to 10 minutes at room temperature. Then, the ATP solution and the biotinylated polypeptide substrate solution were added to the reaction solution and incubated with shaking at room temperature for 60 minutes. Then, an anti-phosphorylated tyrosine antibody coupled with a europium compound and streptavidin coupled with modified allophycocyanin XL665 were added to the reaction, and continuously incubated with shaking at room temperature for 1 hour. After incubation, fluorescence intensity values of each well at an excitation wavelength of 304 nm, and emission wavelengths of 620 nm and 665 nM were determined in a TF-FRET mode on a microplate reader. Compared with the fluorescence intensity ratio of a control group (0.1% DMSO), the percentage inhibition rates of the compound at each concentration were calculated, and the IC50 value of the compound was obtained by performing nonlinear regression analysis for logarithmic value of the compound concentration - inhibition rate by GraphPad Prism 5 software, which can be seen in Table 1. Table 1 IC50 data of the compounds of the present invention on TRK enzyme activity inhibition
In general terms: TR-FRET usually uses a lanthanide donor and a delayed reading to cut background.

The next series deals with T2, TRKB (Homo sapiens, UniProt Q16620).
T2 construct: purchased Carna bioscience 08-187
Kind of series: HTRF KinEASE-TK kinase activity inhibition assay, TRKB. It is filed as biochemical. Conditions: ATP 10 µM.
From the text: as §1, §2

Series [1] is described as follows: Pharmacokinetic study on ICR mice (plasma, LC-MS/MS). It is filed as in vivo. Particulars: male, mouse; for AUC(0-inf): read-out: Area under curve AUC0-∞; for half-life: read-out: Half-life T1/2(h) (converted). Here is the method: ICR mice, male, 29.0 g to 33.8g, purchased from Beijing Charles River Laboratory Animal Technology Co., Ltd.
Intravenous injection group: an appropriate amount of drug was weighed, and added with mixed solvent (DMA: 30% Solutol HS-15: Saline = 10: 10: 80 (v/v/v)) to prepare the drug with a final concentration of 0.2 mg/mL.
Oral gavage administration group: an appropriate amount of drug was weighed, added with an appropriate amount of sodium carboxymethyl cellulose (CMC-Na, containing 0.5% Tween 80), vortex shaked, and ultrasonically prepared into […] suspension.
For ICR mice, each compound to be tested was divided into an intravenous injection group (9 mice in each group) and an intragastric group (9 mice in each group). The ICR mice were fasted overnight and then administered by orbital intravenous injection (administration dose of 1 mg/kg, and administration volume of 5 mL/kg) and administered by intragastric injection (administration dose of 5 mg/kg, and administration volume of 10 mL/kg), and ate 4 hours after administration.
About 0.2 mL of blood was collected via jugular vein before administration and 0.083 hour, 0.25 hour, 0.5 hour, 1 hour, 2 hours, 4 hours, 8 hours, 12 hours and 24 hours after administration, and heparin sodium was used for anticoagulation. The collected blood samples were placed on ice, and plasma was separated by centrifugation (centrifugation condition: 1500 g, 10 minutes). The collected plasma was stored at-40°C to -20°C before analysis.
LC-MS/MS was used to determine the contents of different compounds to be tested in mouse plasma after intravenous injection and intragastric administration.
The pharmacokinetic parameters of the compounds of the present invention and the positive control can be seen in Table 8. Table 8 Results of pharmacokinetic parameters

Another series has as its target T3, TRKC(G623R) (Homo sapiens, UniProt Q16288, G623R).
T3 construct: purchased SignalChem N18-12CH-10
Briefly: HTRF KinEASE-TK kinase activity inhibition assay, TRKC(G623R). The series is classed as biochemical. Conditions: ATP 100 µM.
From the text: as §1
as §2, with “Then, an anti-phosphorylated tyrosine antibody coupled with a europium compound and streptavidin coupled with modified allophycocyanin XL665 were added to the reaction, and continuously incubated with shaking at room temperature for 1 hour.” left out, “Table 1 IC50 data of the compounds of the present invention on TRK enzyme activity inhibition” left out

A further series addresses T4, TRKC (Homo sapiens, UniProt Q16288).
T4 construct: purchased Carna bioscience 08-197
Kind of series: HTRF KinEASE-TK kinase activity inhibition assay, TRKC. The series is classed as biochemical. Particulars: ATP 50 µM.
From the text: as §1, §2

In a further series the target is T5, TRKA (Homo sapiens, UniProt P04629).
T5 construct: purchased Carna bioscience 08-186
Kind of series: HTRF KinEASE-TK kinase activity inhibition assay, TRKA. It is filed as biochemical. Conditions: ATP 100 µM.
From the text: as §1, §2

The target in the next series is T6, TRKA(G667C) (Homo sapiens, UniProt P04629, G667C).
T6 construct: purchased SignalChem N16-12CG-10
Kind of series: HTRF KinEASE-TK kinase activity inhibition assay, TRKA(G667C). The series is classed as biochemical. Particulars: ATP 1 µM.
From the text: as §1, §2

Where [2] appears, read: intravenous, 1 mg/kg, injection.

T1 sequence (P04629 33-796 G595R): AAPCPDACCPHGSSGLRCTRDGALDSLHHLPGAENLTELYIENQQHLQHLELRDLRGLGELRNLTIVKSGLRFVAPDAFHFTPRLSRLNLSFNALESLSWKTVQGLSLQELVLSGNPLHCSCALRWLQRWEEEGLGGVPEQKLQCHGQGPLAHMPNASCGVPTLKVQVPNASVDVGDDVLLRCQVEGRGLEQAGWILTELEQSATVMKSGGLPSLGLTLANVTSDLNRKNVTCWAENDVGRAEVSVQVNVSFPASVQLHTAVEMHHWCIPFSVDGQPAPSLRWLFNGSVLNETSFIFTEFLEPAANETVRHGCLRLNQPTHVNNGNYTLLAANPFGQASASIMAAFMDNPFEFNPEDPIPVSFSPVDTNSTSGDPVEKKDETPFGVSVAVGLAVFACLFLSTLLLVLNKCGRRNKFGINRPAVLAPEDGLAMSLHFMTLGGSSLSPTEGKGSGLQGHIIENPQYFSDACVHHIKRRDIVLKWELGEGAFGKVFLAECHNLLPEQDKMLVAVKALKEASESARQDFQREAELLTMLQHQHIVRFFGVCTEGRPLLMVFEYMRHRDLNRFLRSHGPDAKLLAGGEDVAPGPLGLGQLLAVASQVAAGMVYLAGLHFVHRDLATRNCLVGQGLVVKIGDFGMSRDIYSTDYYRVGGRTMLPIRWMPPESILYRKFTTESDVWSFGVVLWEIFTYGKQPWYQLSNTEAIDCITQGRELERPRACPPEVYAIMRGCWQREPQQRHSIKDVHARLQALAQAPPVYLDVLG
T2 sequence (Q16620 32-822): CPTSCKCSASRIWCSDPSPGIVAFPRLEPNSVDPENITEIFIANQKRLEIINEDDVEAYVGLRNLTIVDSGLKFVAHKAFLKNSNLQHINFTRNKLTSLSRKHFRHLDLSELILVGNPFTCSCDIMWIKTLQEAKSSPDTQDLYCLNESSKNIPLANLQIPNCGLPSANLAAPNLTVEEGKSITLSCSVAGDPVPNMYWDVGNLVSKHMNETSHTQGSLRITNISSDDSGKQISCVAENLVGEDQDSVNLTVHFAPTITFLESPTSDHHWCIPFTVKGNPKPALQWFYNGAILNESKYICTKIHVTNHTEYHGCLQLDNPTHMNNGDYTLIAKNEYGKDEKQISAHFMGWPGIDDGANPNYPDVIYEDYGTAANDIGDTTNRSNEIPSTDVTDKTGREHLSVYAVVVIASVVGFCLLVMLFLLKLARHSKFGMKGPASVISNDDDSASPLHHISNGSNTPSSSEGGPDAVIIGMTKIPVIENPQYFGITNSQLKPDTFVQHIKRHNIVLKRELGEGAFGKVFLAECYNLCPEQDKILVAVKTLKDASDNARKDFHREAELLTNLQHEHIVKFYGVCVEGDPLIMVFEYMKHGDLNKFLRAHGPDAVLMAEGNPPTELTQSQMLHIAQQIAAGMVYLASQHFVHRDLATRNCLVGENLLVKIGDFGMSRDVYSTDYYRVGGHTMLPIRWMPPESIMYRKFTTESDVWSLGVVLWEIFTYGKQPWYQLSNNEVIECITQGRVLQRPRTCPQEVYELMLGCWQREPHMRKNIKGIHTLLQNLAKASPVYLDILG
T5 sequence (P04629 33-796): as the sequence (P04629 33-796 G595R) above, with R563G counted along it
T3 sequence (Q16288 32-839 G623R): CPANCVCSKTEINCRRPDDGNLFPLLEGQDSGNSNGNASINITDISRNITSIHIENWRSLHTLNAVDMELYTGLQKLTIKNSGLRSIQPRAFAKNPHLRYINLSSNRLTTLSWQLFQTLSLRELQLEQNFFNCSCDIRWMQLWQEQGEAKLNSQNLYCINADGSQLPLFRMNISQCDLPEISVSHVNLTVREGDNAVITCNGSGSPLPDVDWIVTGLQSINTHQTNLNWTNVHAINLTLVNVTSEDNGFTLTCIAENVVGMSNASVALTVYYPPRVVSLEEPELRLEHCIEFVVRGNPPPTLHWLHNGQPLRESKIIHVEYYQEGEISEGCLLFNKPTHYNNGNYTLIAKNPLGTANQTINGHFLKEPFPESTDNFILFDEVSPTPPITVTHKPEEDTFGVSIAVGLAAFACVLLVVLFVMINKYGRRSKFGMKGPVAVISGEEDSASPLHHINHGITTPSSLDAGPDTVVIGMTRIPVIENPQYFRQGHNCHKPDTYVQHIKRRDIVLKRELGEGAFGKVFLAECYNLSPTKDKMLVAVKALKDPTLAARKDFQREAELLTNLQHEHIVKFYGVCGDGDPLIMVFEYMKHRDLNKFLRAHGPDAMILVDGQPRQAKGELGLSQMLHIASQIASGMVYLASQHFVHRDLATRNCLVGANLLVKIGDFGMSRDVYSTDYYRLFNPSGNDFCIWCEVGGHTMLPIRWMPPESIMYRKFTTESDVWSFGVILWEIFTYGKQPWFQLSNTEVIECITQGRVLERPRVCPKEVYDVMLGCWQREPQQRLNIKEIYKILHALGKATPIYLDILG
T6 sequence (P04629 33-796 G667C): as the sequence (P04629 33-796 G595R) above, with R563G, G635C counted along it
T4 sequence (Q16288 32-839): as the sequence (Q16288 32-839 G623R) above, with R592G counted along it

In the case of `C[C@H]1Nc2ccn3ncc(c3n2)C(=O)NCC2(C)Cc3cc(F)cc1c3O2` (stereo partly drawn) [Example 5, (3R)-6-fluoro-3,11-dimethyl-10-oxa-2,13,17,18,21-pentaazapentacyclo[13.5.2.1^8,11.0^4,9.0^18,22]tricosa-1 (21),4,6,8,15(22),16,19-heptaen-14-one], the IC50 at TRKA(G595R) stood at 4.31 nM; against TRKB, 0.76 nM; on TRKC(G623R), 14.5 nM; against TRKC, 2.63 nM; at TRKA it was 0.92 nM. Moreover, the bioavailability in series [1] (5 mg/kg oral intake vs 1 mg/kg injection, read-out: Bioavailability F(%)) came out at 65%. The AUC(0-inf) in series [1] (5 mg/kg, oral intake) was found to be 6040 ng·h/mL; in series [1] (setting [2]) it was 1850 ng·h/mL. Moreover, in series [1] (5 mg/kg, oral intake, read-out: Blood concentration Cmax), the Cmax was 2600 ng/mL. Further, the half-life in series [1] (5 mg/kg, oral intake) is 2.03 h; in series [1] (setting [2]) it was 1.79 h. The clearance in series [1] (intravenous, 1 mg/kg, injection, read-out: Clearance rate) worked out at 9 mL/min/kg.

Consider `C[C@H]1Nc2ccn3ncc(c3n2)C(=O)NC[C@@H]2COc3cc(F)cc1c3O2` [Example 7, (2R,14R)-19-fluoro-2-methyl-16,22-dioxa-3,5,7,8, 12-pentaazapentacyclo[12.6.2.2^4,7.0^6,10.0^17,21]tetrac osa-1(20),4,6(10),8,17(21),18,23-heptaen-11-one], for which the IC50 came to 21.1 nM against TRKA(G667C); 2.65 nM on TRKA(G595R); 0.32 nM at TRKB; 25.3 nM on TRKC(G623R); 2.05 nM on TRKA.

In the case of `C[C@H]1Nc2ccn3ncc(c3n2)C(=O)NCC2(C)Cc3cc(Cl)cc1c3O2` (stereo partly drawn) [Example 22, (3R)-6-chloro-3,11-dimethyl-10-oxa-2,13,17,18,21-pentaazapentacyclo[13.5.2.1^8,11.0^4,9.0^18,22]tricosa-1 (21),4,6,8,15(22),16,19-heptaen-14-one], the 50% inhibitory concentration (IC50) against TRKA(G667C) was found to be 4.6 nM; at TRKA(G595R), 4.97 nM; at TRKB it was 0.36 nM; against TRKC(G623R) it was 7.4 nM; against TRKC it was 0.52 nM; against TRKA it was 0.98 nM.

By IC50 is commonly meant the midpoint of a concentration-inhibition curve. A lower IC50 goes with greater potency in that assay. What is called bioavailability is dose-corrected exposure relative to a reference, in per cent. In general, clearance refers to the rate of elimination divided by the concentration.
